The test system of the series is GENE-TOX genotoxicity assays, various organisms and cells. The experiment in a line: GENE-TOX mutagenicity studies. Conditions: for call: Assay Type: In vivo carcinogenicity studies.
Where [1] appears, read: Species/Cell Type: Allium cepa, Assay Type: Chromosome aberrations, Assay Code: ALC+D, Dose Response: With dose response, Evaluation Type: Evaluation A (Pre-1980).
Setting [2] is: Species/Cell Type: Drosophila melanogaster, Assay Type: Sex-linked recessive lethal gene mutation, Assay Code: SRLT, Evaluation Type: Evaluation A (Pre-1980).
Setting [3] is: Species/Cell Type: Nonhuman, Assay Type: Sister-chromatid exchange (SCE) in vitro, Assay Code: SC2T, Evaluation Type: Evaluation B (Post-1980).
The mark [4] stands for this setting: Species/Cell Type: Escherichia coli WP2, Assay Type: Tryptophan reverse gene mutation, Assay Code: WP2-, Evaluation Type: Evaluation A (Pre-1980).
Setting [5] is: Species/Cell Type: Salmonella typhimurium (one or more of the five standard strains: TA98, TA100, TA1535, TA1537, and TA1538), Assay Type: Histidine reverse gene mutation, Ames assay, Assay Code: SALT, Evaluation Type: Evaluation A (Pre-1980).
Where [6] appears, read: Species/Cell Type: Nonhuman, Assay Code: CCG+, Evaluation Type: Evaluation A (Pre-1980).
Where [7] appears, read: Species/Cell Type: Mammalian polychromatic erythrocytes, Assay Type: Micronucleus test, chromosome aberrations, Assay Code: MNTT, Evaluation Type: Evaluation B (Post-1980).
The mark [8] stands for this setting: Species/Cell Type: Rodents, Sex: Male, Assay Type: Dominant lethal test, Assay Code: DLT-, Evaluation Type: Evaluation A (Pre-1980).

Activity calls are given as the source filed them. No rule for the calls is given here.

For the compound `CCOc1nc2c(c(=O)n(C)c(=O)n2C)n1C`, the mutagenic call under setting [1] is “active; positive”; the mutagenic call (Species/Cell Type: Arabidopsis species, Assay Type: Gene mutation, Assay Code: ARM+, Evaluation Type: Evaluation A (Pre-1980)) is “active; positive”; the mutagenic call (Species/Cell Type: Human lymphocytes or leukocytes, Assay Type: Chromosome aberrations in vitro, Assay Code: CY7+, Evaluation Type: Evaluation A (Pre-1980)) is “active; positive”; the mutagenic call (Species/Cell Type: Nonhuman, Assay Type: Chromosome aberrations in vitro, Assay Code: CY&+, Evaluation Type: Evaluation A (Pre-1980)) is “active; positive”; the mutagenic call (Species/Cell Type: Nonhuman, Assay Type: Sister-chromatid exchange (SCE) in vitro, Assay Code: SC2-, Evaluation Type: Evaluation B (Post-1980)) is “inactive; negative”; the mutagenic call (Species/Cell Type: Nonhuman, Assay Type: Sister-chromatid exchange (SCE) in vitro, Assay Code: SC2T, Evaluation Type: Evaluation A (Pre-1980)) is recorded as “no conclusion”. The mutagenic call (Species/Cell Type: Vicia faba, Assay Type: Chromosome aberrations, Assay Code: VIC+, Evaluation Type: Evaluation A (Pre-1980)) was “active; positive”. With `Cc1c[nH]c(=O)[nH]c1=O`, the mutagenic call was “no conclusion” under setting [2] and “no conclusion” under setting [3]. As to `Oc1c(Cl)cccc1Cl`, the mutagenic call (Species/Cell Type: Allium cepa, Assay Type: Chromosome aberrations, Assay Code: ALC-, Evaluation Type: Evaluation A (Pre-1980)) was “inactive; negative”. Regarding `Nc1ccc(-c2ccc(N)cc2Cl)c(Cl)c1`, the mutagenic call (Species/Cell Type: Human diploid fibroblasts, Assay Type: Unscheduled DNA synthesis (UDS) in vitro, DNA effects, Assay Code: UDH+*, Activation: With metabolic activation, Evaluation Type: Evaluation A (Pre-1980)) was “active; positive”. As for `CNC(=O)Oc1cccc(C)c1`, the mutagenic call was “inactive; negative” (Species/Cell Type: Bacillus subtilis (H17 vs M45T), Assay Type: Rec-assay, spot test, DNA effects (bacterial DNA repair), Assay Code: REX-, Evaluation Type: Evaluation A (Pre-1980)) and “inactive; negative” under setting [4].

In the case of `O=[N+]([O-])c1ccc(Oc2ccc(C(F)(F)F)cc2[N+](=O)[O-])cc1`, the mutagenic call (Species/Cell Type: Saccharomyces cerevisiae, Assay Type: Mitotic recombination or gene conversion, Assay Code: YEC-, Evaluation Type: Evaluation A (Pre-1980)) was “inactive; negative”. As to `Cc1cc(C2(c3ccc(O)c(C)c3)OC(=O)c3ccccc32)ccc1O`, the mutagenic call (Species/Cell Type: Allium cepa, Assay Type: Chromosome aberrations, Assay Code: ALC+, Evaluation Type: Evaluation A (Pre-1980)) was “active; positive”. As to `CC(C)NCCCNc1c2ccccc2nc2cccc([N+](=O)[O-])c12`, the mutagenic call reads like this: (Species/Cell Type: Human lymphocytes, Assay Type: Sister-chromatid exchange (SCE) in vitro, Assay Code: SCL+, Evaluation Type: Evaluation A (Pre-1980)) “active; positive”; (Species/Cell Type: Human, Assay Type: Sister-chromatid exchange (SCE) in vitro, Assay Code: SC1+, Evaluation Type: Evaluation A (Pre-1980)) “active; positive”. In the case of `Cn1c(=O)c2c(n(C)c1=O)n(C)c(=O)n2C`, the mutagenic call under setting [1] is “active; positive”.

With `CC(=O)OC[C@H]1O[C@@H](Oc2cccc3c2C(=O)c2c(O)cccc2C3=O)[C@H](OC(C)=O)[C@@H](OC(C)=O)[C@@H]1OC(C)=O`, the mutagenic call (Species/Cell Type: Salmonella typhimurium (one or more of the five standard strains: TA98, TA100, TA1535, TA1537, and TA1538), Assay Type: Histidine reverse gene mutation, Ames assay, Assay Code: SAL+*, Activation: With metabolic activation, Evaluation Type: Evaluation A (Pre-1980)) was “active; positive”. Turning to `COc1cccc2oc3c4c(cc(OC)c3c(=O)c12)O[C@H]1OC=C[C@@H]41`, under setting [5], the mutagenic call is listed as “no conclusion”.

Turning to `CC(C)CBr`, the mutagenic call (Species/Cell Type: Escherichia coli polA (W3119 vs P3478), Assay Type: Rec-assay, DNA effects (bacterial DNA repair), Assay Code: RE1T, Evaluation Type: Evaluation A (Pre-1980)) is “no conclusion”. Consider `CC(=O)Nc1ccc2c(ccc3ccccc32)c1`, for which the mutagenic call (Species/Cell Type: Human diploid fibroblasts, Assay Type: Unscheduled DNA synthesis (UDS) in vitro, DNA effects, Assay Code: UDH-, Evaluation Type: Evaluation A (Pre-1980)) is “inactive; negative”. The call (Species/Cell Type: Nonhuman, Assay Code: CCG+L, Evaluation Type: Evaluation A (Pre-1980)) was “active; positive”.

As for `O=Nc1ccc(Nc2ccccc2)cc1`, the call under setting [6] was “active; positive”.

Turning to `F[Si-2](F)(F)(F)(F)F`, the mutagenic call under setting [7] is recorded as “no conclusion”. On to `CC(=O)NN`, for which the mutagenic call (Species/Cell Type: Mammalian polychromatic erythrocytes, Assay Type: Micronucleus test, chromosome aberrations, Assay Code: MNT+U, Dose Response: Unconfirmed positive response, Evaluation Type: Evaluation B (Post-1980)) is “active; positive”. In the case of `CCOC(=O)COc1ccc(Cl)cc1CCl` (tested in a mixture with another compound), the mutagenic call (Species/Cell Type: Saccharomyces cerevisiae, Assay Type: Reverse gene mutation, Assay Code: YERT, Evaluation Type: Evaluation A (Pre-1980)) was “no conclusion”. As for `CC(=O)OCCBr`, the mutagenic call (Species/Cell Type: Escherichia coli polA (W3119 vs P3478), Assay Type: Rec-assay, DNA effects (bacterial DNA repair), Assay Code: RE1+, Evaluation Type: Evaluation A (Pre-1980)) was “active; positive”. For `N#CCCN1CC1`, under “Species/Cell Type: Schizosaccharomyces pombe, Assay Type: Reverse gene mutation, Assay Code: YEZ+, Evaluation Type: Evaluation A (Pre-1980)”, the mutagenic call was “active; positive”.

Turning to `CCN(CC)c1nc(C)cc(OP(=S)(OC)OC)n1`, under setting [7], the mutagenic call is reported as “no conclusion”.

Regarding `CN(CC(=O)O)N=O`, the call under setting [6] is “active; positive”. Moreover, for the setting “Species/Cell Type: Salmonella typhimurium, Assay Type: Forward and reverse gene mutation, host-mediated assay, Assay Code: HMA-, Evaluation Type: Evaluation A (Pre-1980)”, the mutagenic call was “inactive; negative”. As for `O=Cc1ccc(C(=O)O)cc1`, the mutagenic call (Species/Cell Type: Syrian hamster embryo (SA7/SHE) cells, Assay Type: Cell transformation, viral enhanced, Assay Code: CT7+, Evaluation Type: Evaluation A (Pre-1980)) is “active; positive”. As to `OCCN(CCO)CCO`, the mutagenic call under setting [1] is “active; positive”. With `COc1ccc(C(=C(c2ccc(OC)cc2)c2ccc(OC)cc2)c2ccc(OC)cc2)cc1`, the mutagenic call under setting [5] is reported as “no conclusion”. As to `O=C1OC(O)C(C(Cl)Cl)=C1Cl` (configuration not stated), the mutagenic call (Species/Cell Type: Mammalian polychromatic erythrocytes, Assay Type: Micronucleus test, chromosome aberrations, Assay Code: MNT-, Evaluation Type: Evaluation B (Post-1980)) was “inactive; negative”. For the compound `C[C@H](N)C(=O)c1ccccc1`, the mutagenic call (Species/Cell Type: Mammalian polychromatic erythrocytes, Assay Type: Micronucleus test, chromosome aberrations, Assay Code: MNT+, Evaluation Type: Evaluation B (Post-1980)) was “active; positive”. As to `O=C1c2ccccc2C(=O)N1CC1CO1` (configuration not stated), for the setting “Species/Cell Type: Chinese hamster ovary (CHO) cells, Assay Type: Forward gene mutation at the HPRT locus, Assay Code: CHO+, Evaluation Type: Evaluation B (Post-1980)”, the mutagenic call was “active; positive”. For the compound `S=C1NCCN1`, the mutagenic call is, setting by setting: under setting [4], “inactive; negative”; (Species/Cell Type: Escherichia coli WP2 UVRA, Assay Type: Tryptophan reverse gene mutation, Assay Code: WPU-, Evaluation Type: Evaluation A (Pre-1980)) “inactive; negative”; (Species/Cell Type: Mammalian polychromatic erythrocytes, Assay Type: Micronucleus test, chromosome aberrations, Assay Code: MNTT, Evaluation Type: Evaluation A (Pre-1980)) “no conclusion”; (Species/Cell Type: Mouse, Sex: Male, Assay Type: Sperm morphology, Assay Code: SPI-, Evaluation Type: Evaluation A (Pre-1980)) “inactive; negative”; under setting [3], “no conclusion”; (Species/Cell Type: Rodents, Sex: Male, Assay Type: Dominant lethal test, Assay Code: DLT+, Evaluation Type: Evaluation A (Pre-1980)) “active; positive”. Also, the mutagenic call runs as follows: (Species/Cell Type: Salmonella typhimurium (one or more of the five standard strains: TA98, TA100, TA1535, TA1537, and TA1538), Assay Type: Histidine reverse gene mutation, Ames assay, Assay Code: SAL+, Evaluation Type: Evaluation A (Pre-1980)) “active; positive”; (Species/Cell Type: Salmonella typhimurium, Assay Type: Forward and reverse gene mutation, host-mediated assay, Assay Code: HMA+, Evaluation Type: Evaluation A (Pre-1980)) “active; positive”; (Species/Cell Type: Syrian hamster embryo (SA7/SHE) cells, Assay Type: Cell transformation, viral enhanced, Assay Code: CT7-, Evaluation Type: Evaluation A (Pre-1980)) “inactive; negative”; (Species/Cell Type: Tradescantia species, Assay Type: Gene mutation, Assay Code: TRM+D, Dose Response: With dose response, Evaluation Type: Evaluation A (Pre-1980)) “active; positive”. In addition, the call under setting [6] was “active; positive”. Take `Nc1c(O)c(S(=O)(=O)O)cc2cc(S(=O)(=O)O)ccc12`: the mutagenic call under setting [8] is “inactive; negative”. Turning to `Cc1c2ccccc2c2ccc3cccc4ccc1c2c43`, the mutagenic call (Species/Cell Type: Chinese hamster lung (V79) cells, Assay Type: Forward gene mutation at the HPRT or ouabain locus, Assay Code: V79+*, Activation: With metabolic activation, Evaluation Type: Evaluation A (Pre-1980)) is “active; positive”. The call under setting [6] was “active; positive”.

Consider `Cc1c2ccccc2c(C)c2c1ccc1cccc(C)c12`, for which the mutagenic call (Species/Cell Type: Chinese hamster lung (V79) cells, Assay Type: Forward gene mutation at the HPRT or ouabain locus, Assay Code: V79-*, Activation: With metabolic activation, Evaluation Type: Evaluation A (Pre-1980)) was “inactive; negative”. For `[Cl][La]([Cl])[Cl]`, where the note is “Species/Cell Type: Bacillus subtilis (H17 vs M45), Assay Type: Rec-assay, spot test, DNA effects (bacterial DNA repair), Assay Code: REW-, Evaluation Type: Evaluation A (Pre-1980)”, the mutagenic call is “inactive; negative”. In the case of `CS(=O)(=O)OC/C=C\COS(C)(=O)=O`, the mutagenic call under setting [2] is given as “no conclusion”. `CN(C)CC/C=C1\c2ccccc2CSc2ccccc21`: under setting [8], the mutagenic call is “inactive; negative”. For `COP(=S)(OC)SCc1nc(N)nc(N)n1`, the mutagenic call (Species/Cell Type: Hordeum vulgare (barley), Assay Type: Chromosome aberrations, Assay Code: HOC-, Evaluation Type: Evaluation A (Pre-1980)) was “inactive; negative”.

These data come from PubChem BioAssay AID1259408 (Genetic Toxicology Data Bank (GENE-TOX), 2018).
